Data from US20240226055A1, “TREATMENT OF DISORDERS WITH TASIMELTEON” (Vanda Pharmaceuticals Inc., priority 2018, published 2024).

Assays:
[1] = Two-phase transatlantic travel study (jet lag, five or eight time zones); assay type: in vivo, human; details: for Objective TST2/3 Night 3, change from baseline: 20 mg for three consecutive nights prior to bedtime; for Objective TST2/3 Night 3, change from baseline / Objective TST2/3 All 3 nights, change from baseline: treated travel vs baseline observational travel
Description: A two-phase transatlantic travel study of 25 subjects (tasimelteon n=13, placebo n=12) comprises a first phase that is an observational travel study to collect baseline data, and a second phase that is a treatment phase. Participants in the study travel either five or eight time zones from Washington, DC to London (five time zones) or San Francisco or Los Angeles to London (eight time zones). Participants stay at their destination for three nights and four days and during randomization receive 20 mg of tasimelteon for three consecutive nights prior to their bedtime. Efficacy is monitored by PSG as well as sleep and wake questionnaire scales.
The primary endpoint of the study is TST for the first 2/3 of the night(s) most likely to be disrupted. These are, from Table 2, Night 3, followed by Night 1 and Night 2.
Measures of global function, including Patient Global Impression of Severity (PGI-S) and KSS also favor tasimeltcon.

[2] = Phase III clinical study of an 8-hour advance in usual bedtime (jet lag disorder circadian challenge); assay type: in vivo, human
Description: In the course of the trial, volunteers are subjected to a circadian challenge of an 8-hour advance in their usual bedtime, consistent with the circadian challenge induced in travelers crossing eight time zones (e.g., Los Angeles to London or Washington, DC to Moscow) and typically causing jet lag disorder.
The pre-specified primary endpoint used for this purpose is the amount of sleep time in the first two thirds of the night. Secondary endpoints include measures of various sleep parameters-total sleep time (TST), latency to persistent sleep (LPS), and wake after sleep onset (WASO)-as well as next day alertness, measured using the Karolinska Sleepiness Scale (KSS) and Visual Analog Scale (VAS).

[3] = 20 mg for three consecutive nights, Post-Sleep Questionnaire
[4] = 20 mg for three consecutive nights, difference from placebo
[5] = Post-Sleep Questionnaire, difference from placebo
[6] = 20 mg dose, 8-hour bedtime advance, difference from placebo
[7] = 20 mg dose, 8-hour bedtime advance, treatment group value
[8] = 8-hour phase advance, difference from placebo
[9] = 8-hour phase advance, treatment group value

CCC(=O)NC[C@@H]1C[C@H]1c1cccc2c1CCO2 [Hetlioz ®, tasimelteon]
Objective TST2/3 Night 3, change from baseline ([1]; listed as HETLIOZ ®): 76.2 min | Objective TST2/3 Night 3, change from baseline ([1]; listed as Tasimelteon): 76 min | Global measures KSS Day 4, change from baseline ([1]; 20 mg for three consecutive nights, Karolinska Sleepiness Scale): −1.69 | Global measures PGI-S Day 3, change from baseline ([1]; 20 mg for three consecutive nights, Patient Global Impression of Severity): −0.71 | Subjective Sleep Latency Night 3, change from baseline [1, 3]: −20.6 | Subjective Sleep Quality Night 3, change from baseline [1, 3]: 1.31 | Subjective TSTFull All 3 Nights, change from baseline [1, 3]: 240.0 | Subjective TSTFull Night 3, change from baseline [1, 3]: 111.9 | Subjective WASO Night 3, change from baseline [1, 3]: −81.1 | Objective TST2/3 All 3 nights, change from baseline, Difference vs placebo [1, 4]: 90.6 min | Objective TST2/3 Night 3, change from baseline, Difference vs placebo [1, 4]: 34.8 min | Objective TST2/3 All 3 nights, change from baseline ([1]; 20 mg for three consecutive nights, listed as HETLIOZ ®): 131.4 min | Objective TST2/3 All 3 nights, change from baseline ([1]; 20 mg for three consecutive nights, listed as Tasimelteon): 131 min | Global measures KSS Day 4, change from baseline, Difference vs placebo ([1]; Karolinska Sleepiness Scale, difference from placebo): −1.00 | Global measures PGI-S Day 3, change from baseline, Difference vs placebo ([1]; Patient Global Impression of Severity, difference from placebo): −0.63 | Subjective Sleep Latency Night 3, change from baseline, Difference vs placebo [1, 5]: −26.5 | Subjective Sleep Quality Night 3, change from baseline, Difference vs placebo [1, 5]: 0.95 | Subjective TSTFull All 3 Nights, change from baseline, Difference vs placebo [1, 5]: 174.9 | Subjective TSTFull Night 3, change from baseline, Difference vs placebo [1, 5]: 78.5 | Subjective WASO Night 3, change from baseline, Difference vs placebo [1, 5]: −56.4 | PSG TST2/3 (sleep time in first two thirds of the night, primary endpoint) ([2]; 20 mg dose, 8-hour bedtime advance, healthy volunteers, treatment group value): 216.4 min | KSS (1-9) average, next day alertness ([2]; 20 mg dose, 8-hour bedtime advance, Karolinska Sleepiness Scale, treatment group value): 4.0 | VAS (0-100) average, next day alertness ([2]; 20 mg dose, 8-hour bedtime advance, Visual Analog Scale, treatment group value): 60.8 | KSS (1-9) average, Diff vs placebo [2, 6]: −0.53 | PSG LPS, Diff vs placebo [2, 6]: -15.08 min | PSG TST2/3, Diff vs placebo [2, 6]: 60.31 min | PSG TSTfull, Diff vs placebo [2, 6]: 85.46 min | PSG WASO, Diff vs placebo [2, 6]: -74.58 min | VAS (0-100) average, Diff vs placebo [2, 6]: 6.59 | PSG TSTfull, Diff vs placebo ([2]; 20 mg dose, 8-hour bedtime advance, difference from placebo, listed as tasimelteon): 85 min | PSG LPS (latency to persistent sleep) [2, 7]: 21.8 min | PSG TSTfull (total sleep time) [2, 7]: 315.8 min | PSG WASO (wake after sleep onset) [2, 7]: 144.6 min | PSG REMTotal, Difference vs placebo [2, 8]: 13.7 min | REMAccumulate, Difference vs placebo [2, 8]: -53.3 min | REMAchieved, Difference vs placebo [2, 8]: 24.5% | PSG REMTotal (total REM sleep period) [2, 9]: 48.9 min | REMAccumulate (time required to accumulate 30 minutes of REM sleep) [2, 9]: 318.7 min | REMAchieved [2, 9]: 76.1%
